Reference: paper PMC11881906, “Development of xanthone derivatives as effective broad-spectrum antimicrobials: Disrupting cell wall and inhibiting DNA synthesis” (Science Advances, 2025)
Values after ≈ are worked out from the molar mass of the structure shown.

Assays:
MRSA N315 = experiment: MIC, broth microdilution; format: cell-based; conditions: Staphylococcus aureus, 24 h, read-out: MIC90 MRSA N315
Experimental: (§1) MIC was determined using the broth microdilution method in accordance with Clinical and Laboratory Standards Institute guidelines. All compounds were dissolved in dimethyl sulfoxide (DMSO; final DMSO concentration of less than 0.5%) and sterile double-distilled water and then diluted with Mueller-Hinton broth (MHB). Each compound’s stock solution was serially twofold diluted, resulting in concentrations ranging from 0.39 to 100 μg/ml, and thereafter added to sterile 96-well plates. All bacterial cell suspensions were adjusted in MHB to attain a starting inoculum of 1 × 10^6 cells/ml. A total of 100 μl volume of the bacterial suspension was then added to each well. Following a 24-hour incubation at 37°C, the optical density at 600 nm (OD600) was confirmed by measuring absorbance at 600 nm with a BioTek microplate reader. […] All measurements were repeated three times with duplicates each time.

MRSA NCTC 10442 = experiment: MIC, broth microdilution; format: cell-based; conditions: Staphylococcus aureus, 24 h, read-out: MIC90 MRSA NCTC 10442
Experimental: as §1

S. aureus ATCC 29213 [1] = experiment: MIC, broth microdilution; format: cell-based; conditions: Staphylococcus aureus, ATCC29213, 24 h, read-out: MIC90 S. aureus ATCC 29213
Experimental: as §1

E. coli ATCC 25922 = experiment: MIC, broth microdilution; format: cell-based, Escherichia coli; conditions: Escherichia coli, ATCC25922, 24 h, read-out: MIC90 E. coli ATCC 25922
Experimental: as §1

rabbit erythrocytes = experiment: Hemolysis assay; format: cell-based; conditions: concentration causing 50% hemolysis of red blood cells; 1 hour, 37°C
Experimental: The hemolytic activity of antimicrobial agents was investigated as previously described ([70]). Briefly, the rabbit erythrocytes were centrifuged at 2500 rpm for 3 min before being washed twice with sterile phosphate-buffered saline (PBS) (pH 7.4). Subsequently, the erythrocytes were diluted with PBS to a final concentration of 8% (v/v). The DMSO-dissolved compounds were twofold serially diluted in PBS to achieve a final concentration with DMSO less than 0.5%. […] Sterile PBS and 0.2% Triton X-100 were used as negative and positive controls, respectively. After 1 hour of incubation at 37°C, the tested samples were centrifuged at 2500 rpm for 5 min, and aliquots of the supernatant were added to 96-well microplates. The hemoglobin release was determined by measuring the absorbance at 576 nm using a BioTek multimode reader. The percentage of hemolytic activity was calculated using the following formula: Hemolysis rate (%) = [OD576 (compound) − OD576 (PBS)]/[OD576 (Triton X-100) − OD576 (PBS)] × 100. All measurements were repeated three times with duplicates each time.

S. aureus ATCC 29213 [2] = experiment: Time-kill kinetic assay; format: cell-based, Staphylococcus aureus; conditions: 10× MIC, 24 hours
Experimental: The bacterial cultures were standardized to obtain an initial density that ranged from 10^5 to 10^6 cells/ml. The cultures were incubated in a shaking bath at 37°C. Viable counts were determined at 0-, 0.5-, 1.0-, 2.0-, 4.0-, 8.0-, and 24-hour intervals by spotting 10-μl aliquots of serially 10-fold diluted cultures onto Mueller-Hinton agar (MHA) plates. […] All measurements were repeated three times with duplicates each time.

S. aureus ATCC 29213 [3] = experiment: Murine corneal infection model; format: in vivo, mice; conditions: topical, four times daily for 3 days; XT17 5 mg/ml, vancomycin 50 mg/ml; vs 5% glucose control
Excerpt: Female C57BL/6 mice (average weight, 20 g) were used for the in vivo efficacy experiments. Mice were housed in a specific pathogen–free facility on a 12-hour light-dark cycle, under the condition with ad libitum access to irradiation sterilized rodent diet and aseptic water. […]. These in vivo experiments were approved by the Experimental Animal Center of South China Agricultural University and conducted in accordance with the policies of the Ministry of Health of China.
The in vivo efficacy of compound XT17 was investigated in a murine corneal infection model. Before infection, the mice were immunosuppressed with three intraperitoneal injections of cyclophosphamide (100 mg/kg) over 5 days. After anesthesia with 2.5% avertin (500 mg/kg, ip), the left corneas of mice were scratched with 15 μl of S. aureus ATCC 29213 or P. aeruginosa ATCC 9027 (approximately 5 × 10^7 CFU/ml). Following 1 day of infection, the infected mice were randomly assigned into […] (n = 5) and subsequently administered with 0.5% compound XT17, 5% glucose solution, 5% vancomycin, or 0.3% gatifloxacin topically. S. aureus–caused murine corneal infections were treated four times a day for three consecutive days. Only 2 days of treatment were given for P. aeruginosa–caused murine corneal infections. On the first day, the drug was administered every 20 min for 1 hour and then three times at 2-hour intervals on the second day. The mice were given a 5% glucose solution as a negative control in the absence of any antimicrobial agent treatment. The infected corneas were collected after the mice were euthanized, and the number of viable bacteria was counted using MHA plates.

S. aureus ATCC 29213 [4] = experiment: Serial passage resistance induction; format: cell-based, Staphylococcus aureus; conditions: 20-day passages at 0.5× MIC
Experimental: The bacteria were grown in a medium containing 0.5× MIC of each compound to prepare the bacterial suspension for the next MIC determination. The MICs were then recorded after incubation at 37°C for 24 hours. Daily passages were continued until the initial MIC increased by more than fourfold. The stability of acquired resistance was investigated by MIC determination and repeated for 20 days.

CN[C@H](CC(C)C)C(=O)N[C@H]1C(=O)N[C@@H](CC(N)=O)C(=O)N[C@H]2C(=O)N[C@H]3C(=O)N[C@H](C(=O)N[C@H](C(=O)O)c4cc(O)cc(O)c4-c4cc3ccc4O)[C@H](O)c3ccc(c(Cl)c3)Oc3cc2cc(c3O[C@@H]2O[C@H](CO)[C@@H](O)[C@H](O)[C@H]2O[C@H]2C[C@](C)(N)[C@H](O)[C@H](C)O2)Oc2ccc(cc2Cl)[C@H]1O [VAN, vancomycin, reference compound]
MIC90 (MRSA N315): 1.56 µg/mL (≈ 1.08 µM)
MIC90 (MRSA NCTC 10442): 1.56 µg/mL (≈ 1.08 µM)
MIC90 (S. aureus ATCC 29213 [1]): 0.78 µg/mL (≈ 0.538 µM)
MIC90 (E. coli ATCC 25922): > 50 µg/mL
HC50 (rabbit erythrocytes): >200 µg/mL
log decrease in bacterial load (S. aureus ATCC 29213 [2]): 4.56 log
log reduction in viable bacterial colonies in the infected corneas (S. aureus ATCC 29213 [3]): 5.57 log

CCn1cc(C(=O)O)c(=O)c2cc(F)c(N3CCNCC3)cc21 [norfloxacin, reference compound]
increase in MIC values during passages (S. aureus ATCC 29213 [4]): approximately 16 fold
